The compounds below were run on HCV genotype 1b replicon (assay: HCV replicon assay, cell ELISA with antibody to replicon-encoded NS3/4A (genotype 1b replicon)). Conditions: Hepatitis C virus, 96 h, read-out: 1b IC50(nM), HCV genotype 1b replicon; 96 hours incubation; NS3/4A cell ELISA.
Type: cell-based, hepatitis C virus
In short: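 An ELISA on lysed cells, using an antibody against NS3/4A protease, served as the proxy for replicon RNA. Cells had first been exposed for 96 h to serially diluted compound in G418-free conditions. Percent of DMSO control was fitted with a four-parameter function to give IC50.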

`CNC(=O)c1c(-c2ccc(F)cc2)oc2cc(N(CC(C)(C)O)S(C)(=O)=O)c(-c3ccc(OC)c(-c4nc5cccc(F)c5o4)c3)cc12` [Example 778] and `CNC(=O)c1c(-c2ccc(F)cc2)oc2cc(N(CC(C)(C)F)S(C)(=O)=O)c(-c3ccc(OC)c(-c4nc5c(F)cccc5o4)c3)cc12` [Example 789] are within 1.5-fold of each other in IC50: 24.8 nM for the first, 18.7 nM for the second.

Compared with `CNC(=O)c1c(-c2ccc(F)cc2)oc2cc(N(CC(F)F)S(C)(=O)=O)c(-c3cccc(-c4nc5ncccc5o4)c3)cc12` [Example 869], `CNC(=O)c1c(-c2ccc(F)cc2)oc2cc(N(CC(F)CCF)S(C)(=O)=O)c(-c3ccc(OC)c(-c4nc5c(F)cccc5o4)c3)cc12` (stereo not drawn) [Example 810] is 5.8-fold higher in IC50: 2.3 nM for the first, 13.4 nM for the second. The first is the more potent here.

Compared with `CNC(=O)c1c(-c2ccc(F)cc2)oc2cc(N(CCC3COC(C)(C)O3)S(C)(=O)=O)c(-c3ccc(OC)c(-c4nc5c(F)cc(F)cc5o4)c3)cc12` (stereo not drawn) [Example 771], `CNC(=O)c1c(-c2ccc(F)cc2)oc2cc(N(CCC(O)CO)S(C)(=O)=O)c(-c3ccc(OC)c(-c4nc5c(F)cc(F)cc5o4)c3)cc12` (stereo not drawn) [Example 785] is 3.7-fold lower in IC50: 13.3 nM for the first, 3.55 nM for the second.

Going from `CNC(=O)c1c(-c2ccc(F)cc2)oc2cc(N(C)S(C)(=O)=O)c(-c3cc(-c4nc5c(F)cccc5o4)c4oc(=O)[nH]c4c3)cc12` [Example 425] to `CNC(=O)c1c(-c2ccc(F)cc2)oc2cc(N(C(CO)CF)S(C)(=O)=O)c(-c3ccc(OC)c(-c4nc5c(F)cccc5o4)c3)cc12` (stereo not drawn) [Example 814], the IC50 rises from 3.04 nM to 9.83 nM (3.2-fold).

Going from `CNC(=O)c1c(-c2ccc(F)cc2)oc2cc(N(C)S(C)(=O)=O)c(-c3cccc(-c4cc5cc(F)ccc5n4CCO)c3)cc12` [Example 598] to `CNC(=O)c1c(-c2ccc(F)cc2)oc2cc(N(C)S(C)(=O)=O)c(-c3cc(OC)cc(-c4cc5cccnc5[nH]4)c3)cc12` [Example 861], the IC50 falls from 3.43 nM to 1.8 nM (1.9-fold).

Same assay, conditions: Hepatitis C virus, 96 h, read-out: Replicon 1b IC50 (nM), HCV genotype 1b replicon cells, 96 hours incubation, NS3/4A ELISA readout

First: CNC(=O)c1c(-c2ccc(F)cc2)oc2cc(N(C)S(C)(=O)=O)c(-c3ccc(F)c(-c4nc5ccccc5[nH]4)c3)cc12 [Example 300]
Second: CNC(=O)c1c(-c2ccc(F)cc2)oc2cc(N(C)S(C)(=O)=O)c(-c3ccc(F)c(-c4nc5cc(C)ccc5[nH]4)c3)cc12 [Example 302]
The IC50 of the first is 2.1-fold lower: 1.5 nM for the first, 3.1 nM for the second.

First: CNC(=O)c1c(-c2ccc(F)cc2)oc2cc(N(C)S(C)(=O)=O)c(-c3cc(F)cc(-c4nc5cc(F)cnc5o4)c3)cc12 [Example 220]
Second: CNC(=O)c1c(-c2ccc(F)cc2)oc2cc(N(C)S(C)(=O)=O)c(-c3cccc(-c4nc5cc(F)cnc5o4)c3)cc12 [Example 224]
The IC50 of the first is 1.5-fold lower: 1.5 nM for the first, 2.3 nM for the second. The first is the more potent here.

`CNC(=O)c1c(-c2ccc(F)cc2)oc2cc(N(C)S(C)(=O)=O)c(-c3ccc(C)cc3)cc12` [Example 82, 2-(4-fluorophenyl)-N-methyl-6-[methyl (methylsulfonyl)amino]-5-(4-methylphenyl)-1-benzofuran-3-carboxamide] and `CNC(=O)c1c(-c2ccc(F)cc2)oc2cc(N(C)S(C)(=O)=O)c(-c3ccc(C(F)(F)F)cc3)cc12` [Example 108, 2-(4-fluorophenyl)-N-methyl-6-[methyl(methylsulfonyl)amino]-5-[4-(trifluoromethyl)phenyl]-1-benzofuran-3-carboxamide] are the same in IC50: 53 nM for the first, 53 nM for the second.

Compared with `CNC(=O)c1c(-c2ccc(F)cc2)oc2cc(N(C)S(C)(=O)=O)c(-c3cccc(-c4nc5cccc(F)c5s4)c3)cc12` [Example 279], `CNC(=O)c1c(-c2ccc(F)cc2)oc2cc(N(C)S(C)(=O)=O)c(-c3cccc(-c4nc5ccc(F)cc5s4)c3)cc12` [Example 147, 5-[3-(6-fluoro-1,3-benzothiazol-2-yl)phenyl]-2-(4-fluorophenyl)-N-methyl-6-[methyl (methylsulfonyl)amino]-1-benzofuran-3-carboxamide] is 2.2-fold higher in IC50: 3.2 nM for the first, 7 nM for the second. The first is the more potent here.

Compared with `CNC(=O)c1c(-c2ccc(F)cc2)oc2cc(N(CCCO)S(C)(=O)=O)c(-c3ccccc3)cc12` [Example 28, 2-(4-fluorophenyl)-6-[(3-hydroxypropyl) (methylsulfonyl)amino]-N-methyl-5-phenyl-1-benzofuran-3-carboxamide], `CNC(=O)c1c(-c2ccc(F)cc2)oc2cc(N(CCN(C)Cc3ccccc3)S(C)(=O)=O)c(-c3ccccc3)cc12` [Example 124, 6-[{2-[benzyl(methyl)amino]ethyl} (methylsulfonyl)amino]-2-(4-fluorophenyl)-N-methyl-5-phenyl-1-benzofuran-3-carboxamide] is higher in IC50: 46 nM for the first, greater than 10000 nM for the second. The first is the more potent here.

First: CNC(=O)c1c(-c2ccc(F)cc2)oc2cc(N(CCCNC(=O)OC(C)(C)C)S(C)(=O)=O)c(-c3cccc(-c4nc5ncccc5o4)c3)cc12 [Compound 395]
Second: CNC(=O)c1c(-c2ccc(F)cc2)oc2cc(N(CCCCO)S(C)(=O)=O)c(-c3cccc(-c4nc5ncccc5o4)c3)cc12 [Compound 391]
The IC50 of the first is 3.4-fold higher: 8.2 nM for the first, 2.4 nM for the second. The second is the more potent here.

First: CNC(=O)c1c(-c2ccc(F)cc2)oc2cc(N(C)S(C)(=O)=O)c(-c3cccc(-c4nc5ccc(NC(=O)[C@@H]6CCCN6C(=O)OC(C)(C)C)cc5o4)c3)cc12 [Example 285]
Second: CNC(=O)c1c(-c2ccc(F)cc2)oc2cc(N(C)S(C)(=O)=O)c(-c3ccc(OC)c(-c4nc5ccccc5o4)c3)cc12 [Example 183]
The IC50 of the first is 6.8-fold higher: 10.2 nM for the first, 1.5 nM for the second.

First: CNC(=O)c1c(-c2ccc(F)cc2)oc2cc(N(C)S(C)(=O)=O)c(-c3cccc(-c4nc5ccc(C#N)cc5[nH]4)c3)cc12 [Example 152, 5-[3-(6-cyano-1H-benzimidazol-2-yl)phenyl]-2-(4-fluorophenyl)-N-methyl-6-[methyl (methylsulfonyl)amino]-1-benzofuran-3-carboxamide]
Second: CNC(=O)c1c(-c2ccc(F)cc2)oc2cc(N(C)S(C)(=O)=O)c(-c3cccc(-c4nc5ccc(=O)[nH]c5[nH]4)c3)cc12 [Example 328]
The IC50 of the first is 3.4-fold lower: 4 nM for the first, 13.5 nM for the second. The first is the more potent here.

Going from `CNC(=O)c1c(-c2ccc(F)cc2)oc2cc(N(C)S(C)(=O)=O)c(-c3cc(F)cc(-c4cc5ccccc5[nH]4)c3)cc12` [Compound 372] to `CNC(=O)c1c(-c2ccc(F)cc2)oc2cc(N(C)S(C)(=O)=O)c(-c3cc(F)cc(-c4nc5cccnc5s4)c3)cc12` [Example 245], the IC50 falls from 13 nM to 2 nM (6.5-fold).

`CNC(=O)c1c(-c2ccc(F)cc2)oc2cc(N(C)S(C)(=O)=O)c(-c3ccc(OC)c(-c4nc5cccc(Cl)c5o4)c3)cc12` [Example 189] and `CNC(=O)c1c(-c2ccc(F)cc2)oc2cc(N(C)S(C)(=O)=O)c(-c3ccc(OC)c(-c4nc5c(C)cccc5o4)c3)cc12` [Example 190] are within 1.5-fold of each other in IC50: 1.9 nM for the first, 2.2 nM for the second.

`CNC(=O)c1c(-c2ccc(F)cc2)oc2cc(N(C)S(C)(=O)=O)c(-c3ccc(OC)c(-c4nc5ccccc5s4)c3)cc12` [Example 144, 5-[3-(1,3-benzothiazol-2-yl)-4-methoxyphenyl]-2-(4-fluorophenyl)-N-methyl-6-[methyl (methylsulfonyl)amino]-1-benzofuran-3-carboxamide] and `CNC(=O)c1c(-c2ccc(F)cc2)oc2cc(N(C)S(C)(=O)=O)c(-c3ccc(F)c(-c4nc5ccc(C)cc5s4)c3)cc12` [Example 294] are within 1.5-fold of each other in IC50: 11 nM for the first, 10 nM for the second.

Going from `CONC(=O)c1c(-c2ccc(F)cc2)oc2cc(N(C)S(C)(=O)=O)c(-c3cccc(C#N)c3)cc12` [Example 94, 5-(3-cyanophenyl)-2-(4-fluorophenyl)-N-methoxy-6-[methyl (methylsulfonyl)amino]-1-benzofuran-3-carboxamide] to `CNC(=O)c1c(-c2ccc(F)cc2)oc2cc(N(C)S(C)(=O)=O)c(-c3cccc(C#N)c3)cc12` [Example 84, 5-(3-cyanophenyl)-2-(4-fluorophenyl)-N-methyl-6-[methyl (methylsulfonyl)amino]-1-benzofuran-3-carboxamide], the IC50 falls from 450 nM to 107 nM (4.2-fold).

First: CNC(=O)c1c(-c2ccc(F)cc2)oc2cc(N(C)S(C)(=O)=O)c(-c3cc(Cl)cc(-c4nc5c(F)cccc5o4)c3)cc12 [Example 406]
Second: CNC(=O)c1c(-c2ccc(F)cc2)oc2cc(N(C)S(C)(=O)=O)c(-c3cc(Cl)cc(-c4nc5cccnc5o4)c3)cc12 [Example 229]
The IC50 of the first is 4.1-fold higher: 15.1 nM for the first, 3.7 nM for the second. The second is the more potent here.

Going from `CNC(=O)c1c(-c2ccc(F)cc2)oc2cc(N(C)S(C)(=O)=O)c(-c3ccccc3N(C)S(C)(=O)=O)cc12` [Example 83, 2-(4-fluorophenyl)-N-methyl-6-[methyl (methylsulfonyl)amino]-5-{2-[methyl (methylsulfonyl)amino]phenyl}-1-benzofuran-3-carboxamide] to `CNC(=O)c1c(-c2ccc(F)cc2)oc2cc(N(C)S(C)(=O)=O)c(-c3ccc(CNS(=O)(=O)c4ccccc4)cc3)cc12` [Example 105, 2-(4-fluorophenyl)-N-methyl-6-[methyl (methylsulfonyl)amino]-5-(4-{[(phenylsulfonyl)amino]methyl}phenyl)-1-benzofuran-3-carboxamide], the IC50 falls from 232 nM to 57 nM (4.1-fold). The second is the more potent here.

Going from `CNC(=O)c1c(-c2ccc(F)cc2)oc2cc(N(C)S(C)(=O)=O)c(-c3cc(C#N)cc(-c4nc5ncccc5o4)c3)cc12` [Example 209] to `CNC(=O)c1c(-c2ccc(F)cc2)oc2cc(N(C)S(C)(=O)=O)c(-c3cc(-c4nc5ncccc5o4)c(OC)cc3F)cc12` [Example 207], the IC50 falls from 5.5 nM to 2.4 nM (2.3-fold).

Going from `CNC(=O)c1c(-c2ccc(F)cc2)oc2cc(N(C)S(C)(=O)=O)c(-c3cc(F)cc(-c4nc5c(C)ccnc5[nH]4)c3)cc12` [Example 307] to `CNC(=O)c1c(-c2ccc(F)cc2)oc2cc(N(C)S(C)(=O)=O)c(-c3cc(F)cc(-c4nc5ccc(OC)nc5[nH]4)c3)cc12` [Example 306], the IC50 rises from 2.4 nM to 28.8 nM (12-fold). The first is the more potent here.

First: CNC(=O)c1c(-c2cccc(-c3cc4c(C(=O)NC)c(-c5ccc(F)cc5)oc4cc3N(C)S(C)(=O)=O)c2)[nH]c2ccccc12 [Compound 377]
Second: CNC(=O)c1c(-c2ccc(F)cc2)oc2cc(N(C)S(C)(=O)=O)c(-c3cc(OC)cc(-c4nc5cncnc5[nH]4)c3)cc12 [Example 345]
The IC50 of the first is 1.8-fold lower: 1.2 nM for the first, 2.1 nM for the second. The first is the more potent here.

Same assay, conditions: read-out: 1b IC50; HCV genotype 1b replicon; 96 hours incubation; NS3/4A cell ELISA

`CNC(=O)c1c(-c2ccc(F)cc2)oc2cc(N(CCF)S(C)(=O)=O)c(-c3cccc(-c4nc5ncccc5o4)c3)cc12` [Example 867] gave an IC50 of 1.8 nM.
